Earlier results, collected in publication PMC9516332 (Frontiers in Oncology, 2022).
Where two headings read alike, the source gives them in different places.

How the values were obtained:
Conditions in all cases: cited from earlier work
[1] = target: panel of 255 wild-type kinases (Homo sapiens, UniProt Q02763)
[2] = target: panel of 255 wild-type kinases (Homo sapiens, UniProt P51617)
[3] = target: T1, panel of 255 wild-type kinases (Homo sapiens, UniProt P29320)
T1 sequence (P29320 21-983): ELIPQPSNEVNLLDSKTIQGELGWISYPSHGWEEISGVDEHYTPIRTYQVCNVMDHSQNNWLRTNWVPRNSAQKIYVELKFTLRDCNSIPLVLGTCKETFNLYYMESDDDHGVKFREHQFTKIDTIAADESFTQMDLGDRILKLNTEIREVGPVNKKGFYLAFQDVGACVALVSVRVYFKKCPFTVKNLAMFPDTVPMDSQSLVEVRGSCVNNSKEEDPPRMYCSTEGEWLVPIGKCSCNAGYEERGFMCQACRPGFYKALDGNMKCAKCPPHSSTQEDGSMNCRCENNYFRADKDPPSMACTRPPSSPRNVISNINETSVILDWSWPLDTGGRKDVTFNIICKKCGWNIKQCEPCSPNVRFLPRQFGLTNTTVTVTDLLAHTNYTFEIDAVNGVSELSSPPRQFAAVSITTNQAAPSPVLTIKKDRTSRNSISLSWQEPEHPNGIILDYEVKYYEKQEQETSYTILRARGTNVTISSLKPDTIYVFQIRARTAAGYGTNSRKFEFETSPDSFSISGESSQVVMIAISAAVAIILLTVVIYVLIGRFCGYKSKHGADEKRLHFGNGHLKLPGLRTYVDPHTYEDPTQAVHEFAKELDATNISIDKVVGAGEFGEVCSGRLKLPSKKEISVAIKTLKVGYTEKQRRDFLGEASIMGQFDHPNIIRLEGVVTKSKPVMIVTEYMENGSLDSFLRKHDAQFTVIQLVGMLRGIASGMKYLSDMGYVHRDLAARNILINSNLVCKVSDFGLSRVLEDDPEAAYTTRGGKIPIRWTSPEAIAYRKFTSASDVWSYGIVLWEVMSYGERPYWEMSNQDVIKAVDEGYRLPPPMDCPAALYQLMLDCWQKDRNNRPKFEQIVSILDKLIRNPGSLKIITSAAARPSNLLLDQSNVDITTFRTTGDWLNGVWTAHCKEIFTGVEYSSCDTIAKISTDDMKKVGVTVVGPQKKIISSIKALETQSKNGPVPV

[4] = target: panel of 255 wild-type kinases (Homo sapiens, UniProt P17948)
[5] = target: T2, panel of 255 wild-type kinases (Homo sapiens, UniProt P43403)
T2 sequence (P43403 1-619): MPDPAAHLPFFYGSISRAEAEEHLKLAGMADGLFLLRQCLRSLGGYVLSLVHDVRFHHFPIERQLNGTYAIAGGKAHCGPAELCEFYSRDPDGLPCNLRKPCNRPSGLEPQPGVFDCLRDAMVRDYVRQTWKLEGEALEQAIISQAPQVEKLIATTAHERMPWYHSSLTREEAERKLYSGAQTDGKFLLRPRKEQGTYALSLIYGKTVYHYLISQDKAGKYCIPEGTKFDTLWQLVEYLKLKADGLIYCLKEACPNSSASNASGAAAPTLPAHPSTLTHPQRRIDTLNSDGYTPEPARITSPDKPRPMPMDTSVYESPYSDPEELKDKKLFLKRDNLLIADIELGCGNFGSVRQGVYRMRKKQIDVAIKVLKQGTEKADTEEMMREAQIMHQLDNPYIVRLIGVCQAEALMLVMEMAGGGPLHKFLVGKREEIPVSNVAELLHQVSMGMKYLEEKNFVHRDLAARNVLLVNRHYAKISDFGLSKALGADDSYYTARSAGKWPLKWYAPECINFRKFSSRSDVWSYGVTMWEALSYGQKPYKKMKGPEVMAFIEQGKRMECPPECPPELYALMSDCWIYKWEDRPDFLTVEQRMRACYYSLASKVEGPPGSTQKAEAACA

[6] = target: T3, panel of 255 wild-type kinases (Homo sapiens, UniProt Q96L34)
T3 sequence (Q96L34 1-752): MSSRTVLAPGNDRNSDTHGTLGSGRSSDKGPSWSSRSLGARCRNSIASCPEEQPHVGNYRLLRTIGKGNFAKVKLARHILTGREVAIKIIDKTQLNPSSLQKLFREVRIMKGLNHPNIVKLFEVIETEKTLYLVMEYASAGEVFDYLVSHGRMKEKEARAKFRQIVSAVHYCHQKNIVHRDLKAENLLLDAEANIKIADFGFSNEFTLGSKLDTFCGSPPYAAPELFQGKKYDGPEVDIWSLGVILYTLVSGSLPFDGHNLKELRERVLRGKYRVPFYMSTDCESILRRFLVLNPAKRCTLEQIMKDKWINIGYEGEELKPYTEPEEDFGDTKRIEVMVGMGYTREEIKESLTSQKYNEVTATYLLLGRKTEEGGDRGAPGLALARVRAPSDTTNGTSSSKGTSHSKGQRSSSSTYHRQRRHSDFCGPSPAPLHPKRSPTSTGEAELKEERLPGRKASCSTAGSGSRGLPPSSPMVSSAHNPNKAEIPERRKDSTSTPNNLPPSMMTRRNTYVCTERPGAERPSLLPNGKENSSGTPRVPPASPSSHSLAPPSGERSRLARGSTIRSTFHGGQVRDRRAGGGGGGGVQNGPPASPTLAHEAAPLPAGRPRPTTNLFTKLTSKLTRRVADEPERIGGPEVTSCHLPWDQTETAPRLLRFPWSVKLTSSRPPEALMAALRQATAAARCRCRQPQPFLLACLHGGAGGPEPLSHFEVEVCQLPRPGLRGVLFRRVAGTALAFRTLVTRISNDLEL

[7] = target: panel of 255 wild-type kinases (Homo sapiens, UniProt P28482)
[8] = kinase TIE2, 1 µmol/L single concentration, ref DOI: 10.1158/1535-7163.MCT-18-0877
[9] = kinase IRAK1, 1 µmol/L single concentration, ref DOI: 10.1158/1535-7163.MCT-18-0877
[10] = kinase EPHA3, 1 µmol/L single concentration, ref DOI: 10.1158/1535-7163.MCT-18-0877
[11] = kinase FLT1, 1 µmol/L single concentration, ref DOI: 10.1158/1535-7163.MCT-18-0877
[12] = kinase ZAP70, 1 µmol/L single concentration, ref DOI: 10.1158/1535-7163.MCT-18-0877
[13] = MARK4, 1 µmol/L single concentration, ref DOI: 10.1158/1535-7163.MCT-18-0877
[14] = kinase Erk2, 1 µmol/L single concentration, ref DOI: 10.1158/1535-7163.MCT-18-0877
[15] = kinase TIE2, 1 µmol/L single concentration, ref DOI: 10.1371/journal.pone.0092146
[16] = kinase IRAK1, 1 µmol/L single concentration, ref DOI: 10.1371/journal.pone.0092146
[17] = kinase EPHA3, 1 µmol/L single concentration, ref DOI: 10.1371/journal.pone.0092146
[18] = kinase FLT1, 1 µmol/L single concentration, ref DOI: 10.1371/journal.pone.0092146
[19] = kinase ZAP70, 1 µmol/L single concentration, ref DOI: 10.1371/journal.pone.0092146
[20] = MARK4, 1 µmol/L single concentration, ref DOI: 10.1371/journal.pone.0092146
[21] = kinase Erk2, 1 µmol/L single concentration, ref DOI: 10.1371/journal.pone.0092146

Compound	%-inhibition at 1 µmol/L, TIE2 [1, 8] [%]	%-inhibition at 1 µmol/L, IRAK1 [2, 9] [%]	%-inhibition at 1 µmol/L, EPHA3 [3, 10] [%]	%-inhibition at 1 µmol/L, FLT1 [4, 11] [%]	%-inhibition at 1 µmol/L, ZAP70 [5, 12] [%]	%-inhibition, MARK4 [6, 13] [%]	%-inhibition at 1 µmol/L, Erk2 [7, 14] [%]	%-inhibition at 1 µmol/L, TIE2 [1, 15] [%]	%-inhibition at 1 µmol/L, IRAK1 [2, 16] [%]	%-inhibition at 1 µmol/L, EPHA3 [3, 17] [%]	%-inhibition at 1 µmol/L, FLT1 [4, 18] [%]	%-inhibition at 1 µmol/L, ZAP70 [5, 19] [%]	%-inhibition, MARK4 [6, 20] [%]	%-inhibition at 1 µmol/L, Erk2 [7, 21] [%]	also measured
O=C(c1ccc(F)c(F)c1Nc1ccc(I)cc1F)N1CC(O)([C@@H]2CCCCN2)C1 [cobimetinib]	19	0.65	2	-0.349	-3	-15	-6.38								
CO[C@@H]1[C@H](N(C)C(=O)c2ccccc2)C[C@H]2O[C@]1(C)n1c3ccccc3c3c4c(c5c6ccccc6n2c5c31)C(=O)NC4 [midostaurin]	30	10	8	95	94	101	2.14								
C=CC(=O)N1CCC[C@@H](n2nc(-c3ccc(Oc4ccccc4)cc3)c3c(N)ncnc32)C1 [ibrutinib]	29	-11	3.8	73	-4.51	-14	-7								
C[C@@H](Oc1cc(-c2cnn(C3CCNCC3)c2)cnc1N)c1c(Cl)ccc(F)c1Cl [crizotinib]								83	92	19	53	21	51	-4.58	
Cc1cc(Nc2ncc(Cl)c(Nc3ccccc3S(=O)(=O)C(C)C)n2)c(OC(C)C)cc1C1CCNCC1 [ceritinib]	-13	9	1.74	16	10	-2.63	57								
CC(C)(C)c1nc(-c2cccc(NS(=O)(=O)c3c(F)cccc3F)c2F)c(-c2ccnc(N)n2)s1 [dabrafenib]								81	-48	18	62	3.47	-27	-8	
C=CC(=O)Nc1cc(Nc2nccc(-c3cn(C)c4ccccc34)n2)c(OC)cc1N(C)CCN(C)C [osimertinib]	3.73	7	0.753	9	18	-13	-10								
CC#CC(=O)N1CCC[C@H]1c1nc(-c2ccc(C(=O)Nc3ccccn3)cc2)c2c(N)nccn12 [acalabrutinib]	-5.36	-7	-2	-1.14	-1.53	-15	-2								
COc1cc(N2CCC(N3CCN(C)CC3)CC2)ccc1Nc1ncc(Cl)c(Nc2ccccc2P(C)(C)=O)n1 [brigatinib]															%-inhibition at 1 µmol/L, TIE2 [1]: 75%; %-inhibition at 1 µmol/L, IRAK1 [2]: 69%; %-inhibition at 1 µmol/L, EPHA3 [3]: 0.198%; %-inhibition at 1 µmol/L, FLT1 [4]: 74%; %-inhibition at 1 µmol/L, ZAP70 [5]: 74%; %-inhibition, MARK4 [6]: 101%; %-inhibition at 1 µmol/L, Erk2 [7]: 10%
CCCS(=O)(=O)Nc1ccc(F)c(C(=O)c2c[nH]c3ncc(-c4ccc(Cl)cc4)cc23)c1F [vemurafenib]								-2.42	10	-7.52	25	6	3.78	-4.58	
CCc1cc2c(cc1N1CCC(N3CCOCC3)CC1)C(C)(C)c1[nH]c3cc(C#N)ccc3c1C2=O [alectinib]	2	92	3.25	2.23	1.18	-3	1.1								
CC(=O)Nc1cccc(-n2c(=O)n(C3CC3)c(=O)c3c(Nc4ccc(I)cc4F)n(C)c(=O)c(C)c32)c1 [trametinib]								-7	6	-6	-2.75	-3	-15	-5	
